Experimental data reported in the supplement of paper PMC10307832.

Assays:
Test in all cases: relative viability (nuclei count vs DMSO), 5 days (fraction); higher = more cells survive
[1] = tested on: BEN
Summary of the method: (§1)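 One day after seeding in 1536-well plates, lung cancer cell lines were dosed by pin tool. Dosing was either single-drug or a fixed anchor-drug dose plus five library-drug doses (not always all listed) in √10 steps. After 5 days, nuclei were stained in one fix-and-stain step and counted on 4× images, and relative viability is the nuclei count of treated wells over that of vehicle wells, given as the median of duplicate plates.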

[2] = tested on: NCI-H838
Summary of the method: as §1

[3] = tested on: SK-LU-1
Summary of the method: as §1

[4] = tested on: LOU-NH91
Summary of the method: as §1

[5] = tested on: NCI-H1437
Summary of the method: as §1

[6] = tested on: NCI-H1651
Summary of the method: as §1

[7] = tested on: NCI-H1975
Summary of the method: as §1

[8] = tested on: NCI-H1734
Summary of the method: as §1

[9] = tested on: NCI-H1563
Summary of the method: as §1

[10] = tested on: HCC-366
Summary of the method: as §1

[11] = tested on: COR-L23
Summary of the method: as §1

[12] = tested on: NCI-H2023
Summary of the method: as §1

[13] = tested on: NCI-H441
Summary of the method: as §1

[14] = tested on: NCI-H1650
Summary of the method: as §1

[15] = tested on: NCI-H1355
Summary of the method: as §1

[16] = tested on: NCI-H460
Summary of the method: as §1

[17] = tested on: LU99A
Summary of the method: as §1

[18] = tested on: NCI-H2085
Summary of the method: as §1

[19] = tested on: CAL-12T
Summary of the method: as §1

COc1nc(C)cnc1NS(=O)(=O)c1cccnc1-c1ccc(-c2nnco2)cc1 [Zibotentan] + CC(C)C[C@H](NC(=O)[C@H](Cc1ccccc1)NC(=O)c1cnccn1)B(O)O [Bortezomib] (partner 0.002 µM)
relative viability ([1]; first compound 0.08 µM): 0.912
relative viability ([1]; first compound 0.253 µM): 0.824
relative viability ([1]; first compound 0.8 µM): 0.792
relative viability ([1]; first compound 2.53 µM): 0.593
relative viability ([2]; first compound 0.08 µM): 0.891
relative viability ([2]; first compound 0.253 µM): 0.865
relative viability ([2]; first compound 0.8 µM): 0.815
relative viability ([2]; first compound 2.53 µM): 0.961
relative viability ([3]; first compound 0.08 µM): 1.17
relative viability ([3]; first compound 0.253 µM): 0.988
relative viability ([3]; first compound 0.8 µM): 1.08
relative viability ([3]; first compound 2.53 µM): 1.11
relative viability ([4]; first compound 0.08 µM): 0.469
relative viability ([4]; first compound 0.253 µM): 0.443
relative viability ([4]; first compound 0.8 µM): 0.538
relative viability ([4]; first compound 2.53 µM): 0.815
relative viability ([5]; first compound 0.08 µM): 0.486
relative viability ([5]; first compound 0.253 µM): 0.504
relative viability ([5]; first compound 0.8 µM): 0.454
relative viability ([5]; first compound 2.53 µM): 0.53
relative viability ([6]; first compound 0.08 µM): 0.981
relative viability ([6]; first compound 0.253 µM): 0.871
relative viability ([6]; first compound 0.8 µM): 0.902
relative viability ([6]; first compound 2.53 µM): 0.972
relative viability ([7]; first compound 0.08 µM): 0.378
relative viability ([7]; first compound 0.253 µM): 0.293
relative viability ([7]; first compound 0.8 µM): 0.411
relative viability ([7]; first compound 2.53 µM): 0.419
relative viability ([8]; first compound 0.08 µM): 1.1
relative viability ([8]; first compound 0.253 µM): 0.894
relative viability ([8]; first compound 0.8 µM): 0.972
relative viability ([8]; first compound 2.53 µM): 1
relative viability ([9]; first compound 0.08 µM): 0.932
relative viability ([9]; first compound 0.253 µM): 0.648
relative viability ([9]; first compound 0.8 µM): 0.881
relative viability ([9]; first compound 2.53 µM): 0.905
relative viability ([10]; first compound 0.08 µM): 1.14
relative viability ([10]; first compound 0.253 µM): 1.03
relative viability ([10]; first compound 0.8 µM): 0.795
relative viability ([10]; first compound 2.53 µM): 1.11
relative viability ([11]; first compound 0.08 µM): 0.999
relative viability ([11]; first compound 0.253 µM): 0.917
relative viability ([11]; first compound 0.8 µM): 0.98
relative viability ([11]; first compound 2.53 µM): 1.07
relative viability ([12]; first compound 0.08 µM): 1.04
relative viability ([12]; first compound 0.253 µM): 0.87
relative viability ([12]; first compound 0.8 µM): 0.909
relative viability ([12]; first compound 2.53 µM): 0.966
relative viability ([13]; first compound 0.08 µM): 0.846
relative viability ([13]; first compound 0.8 µM): 0.463
relative viability ([13]; first compound 2.53 µM): 0.539
relative viability ([14]; first compound 0.08 µM): 0.209
relative viability ([14]; first compound 0.8 µM): 0.198
relative viability ([14]; first compound 2.53 µM): 0.194
relative viability ([15]; first compound 0.08 µM): 1.2
relative viability ([15]; first compound 0.253 µM): 1.36
relative viability ([15]; first compound 0.8 µM): 1.05
relative viability ([15]; first compound 2.53 µM): 1.24
relative viability ([16]; first compound 0.08 µM): 1.25
relative viability ([16]; first compound 0.8 µM): 1.11
relative viability ([16]; first compound 2.53 µM): 1.2
relative viability ([17]; first compound 0.08 µM): 1.3
relative viability ([17]; first compound 0.253 µM): 1.13
relative viability ([17]; first compound 0.8 µM): 1.23
relative viability ([17]; first compound 2.53 µM): 1.17
relative viability ([18]; first compound 0.08 µM): 1.06
relative viability ([18]; first compound 0.253 µM): 0.941
relative viability ([18]; first compound 0.8 µM): 1.07
relative viability ([18]; first compound 2.53 µM): 1.14
relative viability ([19]; first compound 0.08 µM): 0.941
relative viability ([19]; first compound 0.8 µM): 1.01
relative viability ([19]; first compound 2.53 µM): 1.01
